In patent publication US4145444A, “Anti-inflammatory agent of benzoyl derivative” (priority 1977, dated 1979):

Test system: male mice
Assay: Analgesic effect: painful stretchings following intraperitoneal 0.7% acetic acid
Details: Mus musculus, po, read-out: Analgesic: percentage diminition of times of painful stretching
Experimental: Each sample was orally administered in the dosage of 100 mg/kg before injection of acetic acid.

Compound	inhibition in vivo at 100 mg/kg [%]
CCc1cc(CC)c(C(=O)c2ccccc2)c(CC)c1 [compound 13]	15.8
Cc1cc(C)c(C(=O)c2ccc(Cl)cc2)c(C)c1 [compound 14]	19.2
O=C(c1ccccc1)c1ccccc1F [compound 15]	18.5
CCCc1ccc(CCC)c(C(=O)c2ccccc2)c1 [compound 16]	12.4
CCCCc1ccc(CCCC)c(C(=O)c2ccc(C)cc2)c1 [compound 17]	10.3
CCCCc1ccc(C(=O)c2ccc(OC)cc2)cc1 [compound 18]	20.1
CCCCc1ccc(C(=O)c2ccccc2)cc1 [compound 19]	30.1
CCCc1ccc(C(=O)c2ccccc2)cc1 [compound 20]	17.3
CC(C)c1ccc(C(=O)c2ccccc2)cc1 [compound 21]	16.1
CC(C)(C)c1ccc(C(=O)c2ccccc2)cc1 [compound 22]	8.2
CCCCCc1ccc(C(=O)c2ccccc2)cc1 [compound 23]	10.1
CCCCCCc1ccc(C(=O)c2ccccc2)cc1 [compound 24]	47.7
CCCCCCCc1ccc(C(=O)c2ccccc2)cc1 [compound 25]	48.6
CCCCCCCCc1ccc(C(=O)c2ccccc2)cc1 [compound 26]	35.9
O=C(c1ccccc1)c1ccccc1 [compound 27]	13.2
CCCCc1ccc(C(=O)C(=O)c2ccccc2)cc1 [compound 29]	2.7
Cc1ccc(C(=O)c2ccccc2)c(C)c1C [compound 31]	9.5

Compound	inhibition in vivo at 100 mg/kg [%]
Cc1cc(C)c(C(=O)c2ccccc2)cc1C [compound 32]	26.2
CCc1ccc(C(=O)c2ccc(C)cc2)cc1 [compound 33]	15.5
CCCc1ccc(C(=O)c2ccc(C)cc2)cc1 [compound 34]	12.1
CCCCc1ccc(C(=O)c2ccc(C)cc2)cc1 [compound 35]	17.8
CCCCCCc1ccc(C(=O)c2ccc(C)cc2)cc1 [compound 36]	13.7
Cc1ccc(C(=O)c2ccccc2)c(C)c1 [compound 37]	9.8
Cc1ccc(C)c(C(=O)c2ccccc2)c1 [compound 38]	18
CCCCc1ccc(C(=O)Cc2ccccc2)cc1 [compound 39]	23.1
CCCCc1ccc(C(=O)c2ccccc2C)cc1 [compound 40]	20.3
CCCCCc1ccc(C(=O)c2ccccc2C)cc1 [compound 41]	14.6
CCCCOc1ccc(C(=O)c2ccccc2)cc1 [compound 42]	26.8
CCCCc1ccc(C(=O)c2ccc(CCCC)cc2)cc1 [compound 43]	0
CCCCc1ccc(C(=O)c2ccccc2Cl)cc1 [compound 44]	15.6
CCCCCc1ccc(C(=O)c2ccc(OC)cc2)cc1 [compound 45]	12.5
CCCCc1ccc(C(=O)c2ccc(F)cc2C)cc1 [compound 46]	13.4
O=C(Cc1ccccc1)c1ccccc1 [compound 47]	13.1

Test system: hind paws of male rats
Assay: Anti-inflammatory effect: acute carragheenin edema method
Assay type: in vivo
Details: Rattus norvegicus, po, read-out: 50% inhibition ED50 (values in brackets)
Experimental: The edema was induced by subcutaneous injection of 1% carragheenin suspension in saline to the hind paws of male rats weighting 150 to 180 g. Each sample was orally given at the dosage of 100 mg/kg just before the inoculation of carragheenin.

Compound	ED50 [mg/kg]
O=C(c1ccccc1)c1ccccc1 [compound 27]	120

Same assay, conditions: Rattus norvegicus, po, read-out: Anti-inf.: edema inhibition rate

Compound	inhibition in vivo at 100 mg/kg [%]
O=C(c1ccccc1)c1ccccc1 [compound 27]	47.7
O=C(Cc1ccccc1)c1ccccc1 [compound 47]	20.9

Same assay, conditions: Rattus norvegicus; 100 mg/kg oral, carragheenin edema, male rats (Table 2); read-out: Anti-inf.: edema inhibition rate

Compound	inhibition in vivo at 100 mg/kg [%]
CCc1cc(CC)c(C(=O)c2ccccc2)c(CC)c1 [compound 13]	38.9
Cc1cc(C)c(C(=O)c2ccc(Cl)cc2)c(C)c1 [compound 14]	37.3
O=C(c1ccccc1)c1ccccc1F [compound 15]	61.4
CCCc1ccc(CCC)c(C(=O)c2ccccc2)c1 [compound 16]	45.2
CCCCc1ccc(CCCC)c(C(=O)c2ccc(C)cc2)c1 [compound 17]	36.3
CCCCc1ccc(C(=O)c2ccc(OC)cc2)cc1 [compound 18]	41.6
CCCCc1ccc(C(=O)c2ccccc2)cc1 [compound 19]	63.4
CCCc1ccc(C(=O)c2ccccc2)cc1 [compound 20]	42.7
CC(C)c1ccc(C(=O)c2ccccc2)cc1 [compound 21]	37.3
CC(C)(C)c1ccc(C(=O)c2ccccc2)cc1 [compound 22]	36.4
CCCCCc1ccc(C(=O)c2ccccc2)cc1 [compound 23]	50.4
CCCCCCc1ccc(C(=O)c2ccccc2)cc1 [compound 24]	37.6
CCCCCCCc1ccc(C(=O)c2ccccc2)cc1 [compound 25]	40.8
CCCCCCCCc1ccc(C(=O)c2ccccc2)cc1 [compound 26]	47.2
CCCCc1ccc(C(=O)C(=O)c2ccccc2)cc1 [compound 29]	44.7
Cc1ccc(C(=O)c2ccccc2)c(C)c1C [compound 31]	35.4

Compound	inhibition in vivo at 100 mg/kg [%]
Cc1cc(C)c(C(=O)c2ccccc2)cc1C [compound 32]	47.7
CCc1ccc(C(=O)c2ccc(C)cc2)cc1 [compound 33]	43.9
CCCc1ccc(C(=O)c2ccc(C)cc2)cc1 [compound 34]	43.1
CCCCc1ccc(C(=O)c2ccc(C)cc2)cc1 [compound 35]	48.5
CCCCCCc1ccc(C(=O)c2ccc(C)cc2)cc1 [compound 36]	34.8
Cc1ccc(C(=O)c2ccccc2)c(C)c1 [compound 37]	39.6
Cc1ccc(C)c(C(=O)c2ccccc2)c1 [compound 38]	37.5
CCCCc1ccc(C(=O)Cc2ccccc2)cc1 [compound 39]	35.9
CCCCc1ccc(C(=O)c2ccccc2C)cc1 [compound 40]	58.1
CCCCCc1ccc(C(=O)c2ccccc2C)cc1 [compound 41]	47.4
CCCCOc1ccc(C(=O)c2ccccc2)cc1 [compound 42]	35.8
CCCCc1ccc(C(=O)c2ccc(CCCC)cc2)cc1 [compound 43]	34
CCCCc1ccc(C(=O)c2ccccc2Cl)cc1 [compound 44]	57.7
CCCCCc1ccc(C(=O)c2ccc(OC)cc2)cc1 [compound 45]	37.8
CCCCc1ccc(C(=O)c2ccc(F)cc2C)cc1 [compound 46]	43.4

Test system: thrombus
Assay: Inhibiting effect on thrombosis (by-pass between left juglar vein and right carotid artery, silk thread)
Assay type: in vivo, SD type male rates
Details: Rattus norvegicus, po, 5 h, read-out: Thrombosis inh.: thrombosis inhibition rate
Experimental: The inhibiting effects of the samples of the invention on thrombosis were tested by the following test method.
A 0.5 ml of 50 μ/ml of the heparin physiological saline was added through the polyethylene tube before the first blood circulation. After the blood circulation for 15 minutes, the circulation was stopped in the middle of the tubing at artery side with a pinch cock.
Then, 0.2 ml of the heparin physiological saline was added to remove the blood coagulates on the tubing wall and another new polyethylene tubing filled with the heparin solution and containing a piece of new silk thread was attached between the venous and artery tubing ends.
The blood circulation was reestablished by opening the pinch cock. After 15 minutes, the wet weight of thrombus on the silk thread was similarly measured.
In the same manner, the third circulation was performed and wet weight of thrombus measured.
The amount of thrombus was given by the equation A. [formula] Each sample was suspended in an aqueous solution of sodium carboxymethyl cellulose and the oral dose of the suspension (100 mg/kg) was performed at 5 hours before the first blood circulation.
The amount of thrombus after the oral dose of the sample was calculated in the same manner as that of control circulations.
The thrombosis inhibition rate was given by the equation B. [formula]

Compound	inhibition in vivo at 100 mg/kg [%]
O=C(c1ccccc1)c1ccccc1 [compound 27]	25.9
O=C(Cc1ccccc1)c1ccccc1 [compound 47]	15.6

Same assay, conditions: Rattus norvegicus; 100 mg/kg oral, 5 hours before first blood circulation, rats; read-out: Thrombosis inh.: thrombosis inhibition rate

Compound	inhibition in vivo at 100 mg/kg [%]
CCc1cc(CC)c(C(=O)c2ccccc2)c(CC)c1 [compound 13]	20.5
Cc1cc(C)c(C(=O)c2ccc(Cl)cc2)c(C)c1 [compound 14]	23.3
O=C(c1ccccc1)c1ccccc1F [compound 15]	26.5
CCCc1ccc(CCC)c(C(=O)c2ccccc2)c1 [compound 16]	21.5
CCCCc1ccc(CCCC)c(C(=O)c2ccc(C)cc2)c1 [compound 17]	19.5
CCCCc1ccc(C(=O)c2ccc(OC)cc2)cc1 [compound 18]	24.2
CCCCc1ccc(C(=O)c2ccccc2)cc1 [compound 19]	7.9
CCCc1ccc(C(=O)c2ccccc2)cc1 [compound 20]	4.1
CC(C)c1ccc(C(=O)c2ccccc2)cc1 [compound 21]	5.4
CC(C)(C)c1ccc(C(=O)c2ccccc2)cc1 [compound 22]	7.9
CCCCCc1ccc(C(=O)c2ccccc2)cc1 [compound 23]	22.3
CCCCCCc1ccc(C(=O)c2ccccc2)cc1 [compound 24]	24.3
CCCCCCCc1ccc(C(=O)c2ccccc2)cc1 [compound 25]	22.1
CCCCCCCCc1ccc(C(=O)c2ccccc2)cc1 [compound 26]	24.8
CCCCc1ccc(C(=O)C(=O)c2ccccc2)cc1 [compound 29]	15.3
Cc1ccc(C(=O)c2ccccc2)c(C)c1C [compound 31]	23.5

Compound	inhibition in vivo at 100 mg/kg [%]
Cc1cc(C)c(C(=O)c2ccccc2)cc1C [compound 32]	25
CCc1ccc(C(=O)c2ccc(C)cc2)cc1 [compound 33]	28.3
CCCc1ccc(C(=O)c2ccc(C)cc2)cc1 [compound 34]	24.5
CCCCc1ccc(C(=O)c2ccc(C)cc2)cc1 [compound 35]	2.65
CCCCCCc1ccc(C(=O)c2ccc(C)cc2)cc1 [compound 36]	28.1
Cc1ccc(C(=O)c2ccccc2)c(C)c1 [compound 37]	5.3
Cc1ccc(C)c(C(=O)c2ccccc2)c1 [compound 38]	8.3
CCCCc1ccc(C(=O)Cc2ccccc2)cc1 [compound 39]	15.9
CCCCc1ccc(C(=O)c2ccccc2C)cc1 [compound 40]	30.3
CCCCCc1ccc(C(=O)c2ccccc2C)cc1 [compound 41]	28.5
CCCCOc1ccc(C(=O)c2ccccc2)cc1 [compound 42]	10.7
CCCCc1ccc(C(=O)c2ccc(CCCC)cc2)cc1 [compound 43]	86
CCCCc1ccc(C(=O)c2ccccc2Cl)cc1 [compound 44]	35.6
CCCCCc1ccc(C(=O)c2ccc(OC)cc2)cc1 [compound 45]	30.8
CCCCc1ccc(C(=O)c2ccc(F)cc2C)cc1 [compound 46]	34.5

Test system: platelet
Assay: Blood platelet aggregation inhibiting effect (collagen-induced)
Assay type: cell-based, rabbits
Details: Oryctolagus cuniculus, Platelet; 10^-4 mole, collagen inducer, rabbit PRP; read-out: Blood platelet agg. inh.: percentage inhibition of platelet aggregation
Text: Male rabbits (Japan original white strain 3.3 to 3.6 kg) were anesthetized with Thiopental sodium and blood was sampled from the carotid artery.

Compound	inhibition at 100 µM [%]
CCc1cc(CC)c(C(=O)c2ccccc2)c(CC)c1 [compound 13]	14.3
Cc1cc(C)c(C(=O)c2ccc(Cl)cc2)c(C)c1 [compound 14]	18.1
O=C(c1ccccc1)c1ccccc1F [compound 15]	23.2
CCCc1ccc(CCC)c(C(=O)c2ccccc2)c1 [compound 16]	8.6
CCCCc1ccc(CCCC)c(C(=O)c2ccc(C)cc2)c1 [compound 17]	17.3
CCCCc1ccc(C(=O)c2ccc(OC)cc2)cc1 [compound 18]	9.3
CCCCc1ccc(C(=O)c2ccccc2)cc1 [compound 19]	18.6
CCCc1ccc(C(=O)c2ccccc2)cc1 [compound 20]	36.6
CC(C)c1ccc(C(=O)c2ccccc2)cc1 [compound 21]	8.6
CC(C)(C)c1ccc(C(=O)c2ccccc2)cc1 [compound 22]	9.5
CCCCCc1ccc(C(=O)c2ccccc2)cc1 [compound 23]	13.8
CCCCCCc1ccc(C(=O)c2ccccc2)cc1 [compound 24]	10.5
CCCCCCCc1ccc(C(=O)c2ccccc2)cc1 [compound 25]	7.8
CCCCCCCCc1ccc(C(=O)c2ccccc2)cc1 [compound 26]	3.1
O=C(c1ccccc1)c1ccccc1 [compound 27]	25.7
CCCCc1ccc(C(=O)C(=O)c2ccccc2)cc1 [compound 29]	11.1
Cc1ccc(C(=O)c2ccccc2)c(C)c1C [compound 31]	18.2

Compound	inhibition at 100 µM [%]
Cc1cc(C)c(C(=O)c2ccccc2)cc1C [compound 32]	12.4
CCc1ccc(C(=O)c2ccc(C)cc2)cc1 [compound 33]	20.5
CCCc1ccc(C(=O)c2ccc(C)cc2)cc1 [compound 34]	16.4
CCCCc1ccc(C(=O)c2ccc(C)cc2)cc1 [compound 35]	11.3
CCCCCCc1ccc(C(=O)c2ccc(C)cc2)cc1 [compound 36]	15.1
Cc1ccc(C(=O)c2ccccc2)c(C)c1 [compound 37]	17.4
Cc1ccc(C)c(C(=O)c2ccccc2)c1 [compound 38]	20.9
CCCCc1ccc(C(=O)Cc2ccccc2)cc1 [compound 39]	2.6
CCCCc1ccc(C(=O)c2ccccc2C)cc1 [compound 40]	11.9
CCCCCc1ccc(C(=O)c2ccccc2C)cc1 [compound 41]	14.4
CCCCOc1ccc(C(=O)c2ccccc2)cc1 [compound 42]	4.4
CCCCc1ccc(C(=O)c2ccc(CCCC)cc2)cc1 [compound 43]	3.5
CCCCc1ccc(C(=O)c2ccccc2Cl)cc1 [compound 44]	10.5
CCCCCc1ccc(C(=O)c2ccc(OC)cc2)cc1 [compound 45]	17.7
CCCCc1ccc(C(=O)c2ccc(F)cc2C)cc1 [compound 46]	16.5
O=C(Cc1ccccc1)c1ccccc1 [compound 47]	18.3
